Measured values from patent publication US8653095B2, “Small molecules with antimalarial activity” (Radix Pharmaceuticals, Inc., priority 2011, dated 2014).
Entries after “also recorded” stand apart in the source; their conditions may differ. Where two headings read alike, the source gives them in different places.

Legend:
P. berghei NK-65 = experiment: In vivo efficacy in Swiss mice infected with P. berghei; conditions: Plasmodium berghei
Plasmodium berghei = experiment: Oral prophylactic test in mice; format: in vivo; conditions: for Mice infected and treated/Mice surviving day 60: oral; for Protection from malaria (oral prophylactic activity): mice, single dose of 0.5 mg/kg within 2 days pre-infection through 2 days post-infection
Method: Derivative compounds were also tested for oral prophylactic activity.
CD-I male or female mice, 5 weeks of age, were infected with 5×10^4 parasitized erythrocytes of Plasmodium berghei strain. Blood films were taken on day +6 and weekly thereafter until day+30. […]

P. falciparum TM6 = experiment: In vitro blood stage antimalarial efficacy, [3H]hypoxanthine uptake, strain TM6; format: cell-based; conditions: Plasmodium falciparum; read-out: IC50
Method: (§1) In Vitro Blood Stage Antimalarial Efficacy Evaluation. New compounds were tested against a panel of strains of P. falciparum.
(§2) Test compounds were initially dissolved in DMSO and diluted 400 fold in RPMI 1640 culture medium supplemented with 25 mM Hepes, 32 mM NaHCO3 and 10% Albumax I (Gibco, NY). These solutions were subsequently serially diluted two-fold with a Beckman Biomek® 1000 Robot (Fullerton, Calif.) over 11 different concentrations. The parasites were exposed to serial dilutions of each compound for 48 hrs and incubated at 37° C. with 5% O2, 5% CO2 and 90% N2 prior to the addition of [^3H]hypoxanthine. After a further incubation of 18 hrs, parasite DNA was harvested from each microtiter well using Packard Filtermate™ 196 Harvester (Meriden, Conn.) onto glass filters. Uptake of [^3H]hypoxanthine was measured with a Packard TopCount Liquid Scintillation Counter (Packard Instrument Co.).

P. falciparum 3D7 = experiment: In vitro blood stage antimalarial efficacy, [3H]hypoxanthine uptake, strain 3D7; format: cell-based; conditions: Plasmodium falciparum, read-out: IC50
Method: as §1, §2

Plasmodium cynomolgi = experiment: Radical curative activity in relapsed Rhesus monkeys; format: in vivo; conditions: for Monkeys cured: co-administered with chloroquine; for Days post-treatment (relapse) / Results (radical curative test): with CQ 10 mg/kg/day for 7 days, one value per monkey
From the text: Compounds with antihypnozoite activity will delay the relapse or radically cure the infection. […] Relapse was expected in the control group. Relapse in the treated group indicates failure of the test compounds. […] After standard treatment, blood smears were monitored daily for 4 consecutive days of negative results and 2 times weekly for 2 weeks.

[1] = 96 h, P. berghei NK-65, Swiss mice, oral once daily for 4 days, read-out: ED50
[2] = read-out: ED50 (the dose leading to 50% parasite growth inhibition compared to the blank control)
[3] = day of treatment 1, dose 0.5 mg/kg
[4] = day of treatment 1, dose 2 mg/kg
[5] = day of treatment 1, dose 8 mg/kg
[6] = day of treatment 1, dose 32 mg/kg
[7] = day of treatment 2, dose 0.5 mg/kg
[8] = day of treatment 2, dose 2 mg/kg
[9] = day of treatment 2, dose 8 mg/kg
[10] = day of treatment 2, dose 32 mg/kg
[11] = day of treatment −1, dose 0.5 mg/kg
[12] = day of treatment −1, dose 2 mg/kg
[13] = day of treatment −1, dose 8 mg/kg
[14] = day of treatment −1, dose 32 mg/kg
[15] = day of treatment −2, dose 0.5 mg/kg
[16] = day of treatment −2, dose 2 mg/kg
[17] = day of treatment −2, dose 8 mg/kg
[18] = day of treatment −2, dose 32 mg/kg
[19] = Drug 2 at 15 mg/kg PO 1 daily for 3 days
[20] = Drug 2 at 30 mg/kg PO 1 daily for 3 days

SMILES	ED50 (P. berghei NK-65; [1])	ED50 (P. berghei NK-65; [2])	Mice infected and treated/Mice surviving day 60 (Plasmodium berghei; [3])	Mice infected and treated/Mice surviving day 60 (Plasmodium berghei; [4])	Mice infected and treated/Mice surviving day 60 (Plasmodium berghei; [5])	Mice infected and treated/Mice surviving day 60 (Plasmodium berghei; [6])	Mice infected and treated/Mice surviving day 60 (Plasmodium berghei; [7])	Mice infected and treated/Mice surviving day 60 (Plasmodium berghei; [8])	Mice infected and treated/Mice surviving day 60 (Plasmodium berghei; [9])	Mice infected and treated/Mice surviving day 60 (Plasmodium berghei; [10])	Mice infected and treated/Mice surviving day 60 (Plasmodium berghei; [11])	Mice infected and treated/Mice surviving day 60 (Plasmodium berghei; [12])	Mice infected and treated/Mice surviving day 60 (Plasmodium berghei; [13])	Mice infected and treated/Mice surviving day 60 (Plasmodium berghei; [14])	Mice infected and treated/Mice surviving day 60 (Plasmodium berghei; [15])	Mice infected and treated/Mice surviving day 60 (Plasmodium berghei; [16])	Mice infected and treated/Mice surviving day 60 (Plasmodium berghei; [17])	Mice infected and treated/Mice surviving day 60 (Plasmodium berghei; [18])	Protection from malaria (oral prophylactic activity) (Plasmodium berghei)	IC50 (P. falciparum TM6)	other results
CC[C@@H](N)[C@H](O)[C@H](O)[C@H](COC)[C@@H]1CC[C@@]23CC24c2nc5ccc(OC)cc5cc2C(=O)N[C@H]4CN13 (stereo partly drawn) [Formula B]	0.13 mg/kg	< 1 mg/kg	5/5	5/5	5/5	5/5	5/5	5/5	5/5	5/5	5/5	5/5	5/5	5/5	5/5	5/5	5/5	5/5	completely protected	0.18 ± 0.03 nM	IC50 (P. falciparum 3D7): 0.19 ± 0.04 nM; Monkeys cured (Plasmodium cynomolgi; 15 mg/kg/day level): one out of two monkeys; Monkeys cured (Plasmodium cynomolgi; 30 mg/kg/day level): all monkeys; Days post-treatment (relapse) (Plasmodium cynomolgi; [19]): 42 days and no relapse; Results (radical curative test) (Plasmodium cynomolgi; [19]): delayed relapse; also recorded: radical curative; Days post-treatment (relapse) (Plasmodium cynomolgi; [20]): no relapse; Results (radical curative test) (Plasmodium cynomolgi; [20]): radical curative
COC[C@@H]([C@@H](O)[C@@H](O)[C@H](N)Cc1ccccc1)[C@@H]1CC[C@@]23CC24c2nc5ccc(OC)cc5cc2C(=O)N[C@H]4CN13 (stereo partly drawn) [Formula C]	0.11 mg/kg	< 1 mg/kg	5/5	5/5	5/5	5/5	5/5	5/5	5/5	5/5	5/5	5/5	5/5	5/5	5/5	5/5	5/5	5/5	completely protected	0.09 ± 0.02 nM	IC50 (P. falciparum 3D7): 0.22 ± 0.05 nM; Monkeys cured (Plasmodium cynomolgi; 15 mg/kg/day level): one out of two monkeys; Monkeys cured (Plasmodium cynomolgi; 30 mg/kg/day level): all monkeys; Days post-treatment (relapse) (Plasmodium cynomolgi; [19]): 53 days and no relapse; Results (radical curative test) (Plasmodium cynomolgi; [19]): delayed relapse; also recorded: radical curative; Days post-treatment (relapse) (Plasmodium cynomolgi; [20]): no relapse; Results (radical curative test) (Plasmodium cynomolgi; [20]): radical curative
